Measured values from patent publication US20260022142A1, “MACROCYCLIC IMMUNOMODULATORS” (Bristol-Myers Squibb Company, priority 2022, published 2026).
Bridge positions count the residues as written; N and C are the ends. Square brackets hold non-standard residues; d marks the D form. Peptide text beside a SMILES is read from it. * marks the point of attachment. Phe(4-CONH2) = NC(=O)c1ccc(C[C@H](N)C(=O)O)cc1; Phe(4-COOH) = N[C@@H](Cc1ccc(C(=O)O)cc1)C(=O)O; Bip = N[C@@H](Cc1ccc(-c2ccccc2)cc1)C(=O)O; NH(CH2)14COOH = O=C(O)CCCCCCCCCCCCCCN*; Phe(3-Me) = Cc1cccc(C[C@H](N)C(=O)O)c1; NH(CH2)12COOH = O=C(O)CCCCCCCCCCCCN*; Val(3-OH) = CC(C)(O)[C@H](N)C(=O)O; 4Pal = N[C@@H](Cc1ccncc1)C(=O)O; Cha = N[C@@H](CC1CCCCC1)C(=O)O; Carboxymethyl = O=C(O)C*; Orn = NCCC[C@H](N)C(=O)O; Aun = NCCCCCCCCCCC(=O)O; Dab = NCC[C@H](N)C(=O)O; AEEA = NCCOCCOCC(=O)O

These compounds were tested against T1, PD-1/PD-L1 interaction (PE-labeled human PD-L1-Ig binding to Jurkat cell line over-expressing human PD-1) (Homo sapiens, UniProt Q15116) (assay: Jurkat-PD-1 Cell Binding High-Content Screening Assay (CBA)). Settings: Jurkat cell line over-expressing human PD-1; PE-labeled PD-L1-Ig 20 nM final; read-out: Jurkat hPD1-PDL1 IC50.
T1 construct: expressed in transfected cells; host or cells: Jurkat
T1 sequence (Q15116 25-288): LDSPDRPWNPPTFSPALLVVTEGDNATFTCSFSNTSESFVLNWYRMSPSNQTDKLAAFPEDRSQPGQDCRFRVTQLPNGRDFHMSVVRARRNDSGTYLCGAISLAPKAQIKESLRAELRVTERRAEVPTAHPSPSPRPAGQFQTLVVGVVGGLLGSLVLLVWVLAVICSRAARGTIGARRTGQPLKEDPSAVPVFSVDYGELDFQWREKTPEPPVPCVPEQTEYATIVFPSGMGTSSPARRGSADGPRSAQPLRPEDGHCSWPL
Format: cell-based
How it was run: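 Human PD-L1-Ig carrying a covalent PE label on its Ig tag serves as the probe, applied at 20 nM final to compound-treated (2 h, 37° C) Jurkat-hPD-1 cells in medium with 10% fetal calf serum. After one hour, fixation and nuclear staining precede high-content image analysis.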

| SMILES | IC50 |
| --- | --- |
| Cc1cccc(C[C@@H]2NC(=O)[C@H](CC(=O)O)NC(=O)[C@H](Cc3ccc(OCC(=O)O)cc3)NC(=O)[C@H](Cc3ccncc3)NC(=O)CSC[C@@H](C(=O)N[C@@H](CCN)C(=O)NCCOCCOCC(=O)NCCOCCOCC(=O)NCCCCCCCCCCC(=O)O)NC(=O)[C@H](CCCN)NC(=O)[C@H](C(C)(C)O)NC(=O)[C@H](CC3CCCCC3)NC(=O)[C@H](CCN)NC(=O)[C@@H](CC(C)C)NC(=O)[C@H](CCCN)NC(=O)[C@H](Cc3ccc(OCC(=O)O)cc3)NC(=O)[C@H](Cc3ccc(-c4ccccc4)cc3)NC(=O)[C@H](Cc3ccc(OCC(=O)O)cc3)NC2=O)c1 [Compound 3755] ({CH2CO}-[4Pal]Y(Carboxymethyl)D[Phe(3-Me)]Y(Carboxymethyl)[Bip]Y(Carboxymethyl)[Orn][dL][Dab][Cha][Val(3-OH)][Orn]C[Dab][AEEA][AEEA][Aun]-OH; thioether N-14) | 314 nM |
| Cc1cccc(C[C@@H]2NC(=O)[C@H](CC(=O)O)NC(=O)[C@H](Cc3ccc(OCC(=O)O)cc3)NC(=O)[C@H](CCN)NC(=O)CSC[C@@H](C(=O)N[C@@H](CCN)C(=O)NCCOCCOCC(=O)NCCOCCOCC(=O)NCCCCCCCCCCC(=O)O)NC(=O)[C@H](Cc3cnc[nH]3)NC(=O)[C@H](C(C)C)NC(=O)[C@H](CC3CCCCC3)NC(=O)[C@H](CCN)NC(=O)[C@@H](CC(C)C)NC(=O)[C@H](CCCN)NC(=O)[C@H](Cc3ccc(C(=O)O)cc3)NC(=O)[C@H](Cc3ccc(-c4ccccc4)cc3)NC(=O)[C@H](Cc3ccc(C(=O)O)cc3)NC2=O)c1 [Compound 3757] ({CH2CO}-[Dab]Y(Carboxymethyl)D[Phe(3-Me)][Phe(4-COOH)][Bip][Phe(4-COOH)][Orn][dL][Dab][Cha]VHC[Dab][AEEA][AEEA][Aun]-OH; thioether N-14) | 2.6 nM |
| Cc1cccc(C[C@@H]2NC(=O)[C@H](CC(=O)O)NC(=O)[C@H](Cc3ccc(OCC(=O)O)cc3)NC(=O)[C@H](CCN)NC(=O)CSC[C@@H](C(=O)N[C@@H](CCN)C(=O)NCCOCCOCC(=O)NCCOCCOCC(=O)NCCCCCCCCCCCCC(=O)O)NC(=O)[C@H](CCC(=O)O)NC(=O)[C@H](C(C)(C)O)NC(=O)[C@H](CC3CCCCC3)NC(=O)[C@H](CCN)NC(=O)[C@@H](CC(C)C)NC(=O)[C@H](CCCN)NC(=O)[C@H](Cc3ccc(OCC(=O)O)cc3)NC(=O)[C@H](Cc3ccc(-c4ccccc4)cc3)NC(=O)[C@H](Cc3ccc(OCC(=O)O)cc3)NC2=O)c1 [Compound 3758] ({CH2CO}-[Dab]Y(Carboxymethyl)D[Phe(3-Me)]Y(Carboxymethyl)[Bip]Y(Carboxymethyl)[Orn][dL][Dab][Cha][Val(3-OH)]EC[Dab][AEEA][AEEA]-{NH(CH2)12COOH}; thioether N-14) | 19 nM |
| Cc1cccc(C[C@@H]2NC(=O)[C@H](CC(=O)O)NC(=O)[C@H](Cc3ccc(OCC(=O)O)cc3)NC(=O)[C@H](CCN)NC(=O)CSC[C@@H](C(=O)N[C@@H](CCN)C(=O)NCCOCCOCC(=O)NCCOCCOCC(=O)NCCCCCCCCCCCCC(=O)O)NC(=O)[C@H](CCC(=O)O)NC(=O)[C@H](C(C)(C)O)NC(=O)[C@H](CC3CCCCC3)NC(=O)[C@H](CCN)NC(=O)[C@@H](CC(C)C)NC(=O)[C@H](CCCN)NC(=O)[C@H](Cc3ccc(C(=O)O)cc3)NC(=O)[C@H](Cc3ccc(-c4ccccc4)cc3)NC(=O)[C@H](Cc3ccc(C(=O)O)cc3)NC2=O)c1 [Compound 3759] ({CH2CO}-[Dab]Y(Carboxymethyl)D[Phe(3-Me)][Phe(4-COOH)][Bip][Phe(4-COOH)][Orn][dL][Dab][Cha][Val(3-OH)]EC[Dab][AEEA][AEEA]-{NH(CH2)12COOH}; thioether N-14) | 39.2 nM |
| Cc1cccc(C[C@@H]2NC(=O)[C@H](CC(=O)O)NC(=O)[C@H](Cc3ccc(OCC(=O)O)cc3)NC(=O)[C@H](CCN)NC(=O)CSC[C@@H](C(=O)N[C@@H](CCN)C(=O)NCCOCCOCC(=O)NCCOCCOCC(=O)NCCCCCCCCCCCCC(=O)O)NC(=O)[C@H](Cc3cnc[nH]3)NC(=O)[C@H](C(C)(C)O)NC(=O)[C@H](CC3CCCCC3)NC(=O)[C@H](CCN)NC(=O)[C@@H](CC(C)C)NC(=O)[C@H](CCCN)NC(=O)[C@H](Cc3ccc(OCC(=O)O)cc3)NC(=O)[C@H](Cc3ccc(-c4ccccc4)cc3)NC(=O)[C@H](Cc3ccc(OCC(=O)O)cc3)NC2=O)c1 [Compound 3760] ({CH2CO}-[Dab]Y(Carboxymethyl)D[Phe(3-Me)]Y(Carboxymethyl)[Bip]Y(Carboxymethyl)[Orn][dL][Dab][Cha][Val(3-OH)]HC[Dab][AEEA][AEEA]-{NH(CH2)12COOH}; thioether N-14) | 4.7 nM |
| Cc1cccc(C[C@@H]2NC(=O)[C@H](CC(=O)O)NC(=O)[C@H](Cc3ccc(OCC(=O)O)cc3)NC(=O)[C@H](CCN)NC(=O)CSC[C@@H](C(=O)N[C@@H](CCN)C(=O)NCCOCCOCC(=O)NCCOCCOCC(=O)NCCOCCOCC(=O)NCCCCCCCCCCCCCCC(=O)O)NC(=O)[C@H](Cc3c[nH]cn3)NC(=O)[C@H](C(C)(C)O)NC(=O)[C@H](CC3CCCCC3)NC(=O)[C@H](CCN)NC(=O)[C@@H](CC(C)C)NC(=O)[C@H](CCCN)NC(=O)[C@H](Cc3ccc(C(=O)O)cc3)NC(=O)[C@H](Cc3ccc(-c4ccccc4)cc3)NC(=O)[C@H](Cc3ccc(C(N)=O)cc3)NC2=O)c1 [Compound 3761] ({CH2CO}-[Dab]Y(Carboxymethyl)D[Phe(3-Me)][Phe(4-CONH2)][Bip][Phe(4-COOH)][Orn][dL][Dab][Cha][Val(3-OH)]HC[Dab][AEEA][AEEA][AEEA]-{NH(CH2)14COOH}; thioether N-14) | 36.8 nM |
| Cc1cccc(C[C@@H]2NC(=O)[C@H](CC(=O)O)NC(=O)[C@H](Cc3ccc(OCC(=O)O)cc3)NC(=O)[C@H](CCN)NC(=O)CSC[C@@H](C(=O)N[C@@H](CCN)C(=O)NCCOCCOCC(=O)NCCOCCOCC(=O)NCCCCCCCCCCCCCCC(=O)O)NC(=O)[C@H](Cc3cnc[nH]3)NC(=O)[C@H](C(C)(C)O)NC(=O)[C@H](CC3CCCCC3)NC(=O)[C@H](CCN)NC(=O)[C@@H](CC(C)C)NC(=O)[C@H](CCCN)NC(=O)[C@H](Cc3ccc(C(=O)O)cc3)NC(=O)[C@H](Cc3ccc(-c4ccccc4)cc3)NC(=O)[C@H](Cc3ccc(C(=O)O)cc3)NC2=O)c1 [Compound 3762] ({CH2CO}-[Dab]Y(Carboxymethyl)D[Phe(3-Me)][Phe(4-COOH)][Bip][Phe(4-COOH)][Orn][dL][Dab][Cha][Val(3-OH)]HC[Dab][AEEA][AEEA]-{NH(CH2)14COOH}; thioether N-14) | 27.5 nM |
| Cc1cccc(C[C@@H]2NC(=O)[C@H](CC(=O)O)NC(=O)[C@H](Cc3ccc(C(=O)O)cc3)NC(=O)[C@H](Cc3ccncc3)NC(=O)CSC[C@@H](C(=O)N[C@@H](CCN)C(=O)NCCOCCOCC(=O)NCCOCCOCC(=O)NCCCCCCCCCCC(=O)O)NC(=O)[C@H](CCC(=O)O)NC(=O)[C@H](C(C)(C)O)NC(=O)[C@H](CC3CCCCC3)NC(=O)[C@H](CCN)NC(=O)[C@@H](CC(C)C)NC(=O)[C@H](CCCN)NC(=O)[C@H](Cc3ccc(C(=O)O)cc3)NC(=O)[C@H](Cc3ccc(-c4ccccc4)cc3)NC(=O)[C@H](Cc3ccc(C(=O)O)cc3)NC2=O)c1 [Compound 3764] ({CH2CO}-[4Pal][Phe(4-COOH)]D[Phe(3-Me)][Phe(4-COOH)][Bip][Phe(4-COOH)][Orn][dL][Dab][Cha][Val(3-OH)]EC[Dab][AEEA][AEEA][Aun]-OH; thioether N-14) | 238 nM |
